Assays:
Assay in all cases: Kinase panel profiling at 1 µmol/L (MSA or IMAP), percentage inhibition
Assay type in all cases: biochemical
[1] = biological target: panel of 255 wild-type kinases (Homo sapiens, UniProt Q9H4A3); details: kinase WNK1; 1 µmol/L single concentration; read-out: %-inhibition at 1 µmol/L, WNK1
[2] = biological target: panel of 255 wild-type kinases (Homo sapiens, UniProt Q15208); details: NDR1; 1 µmol/L single concentration; read-out: %-inhibition, NDR1
[3] = biological target: panel of 255 wild-type kinases (Homo sapiens, UniProt P49759); details: kinase CLK1; 1 µmol/L single concentration; read-out: %-inhibition at 1 µmol/L, CLK1
[4] = biological target: panel of 255 wild-type kinases (Homo sapiens, UniProt P42684); details: ARG kinase assay; 1 µmol/L single concentration; read-out: %-inhibition ARG
[5] = biological target: panel of 255 wild-type kinases (Homo sapiens, UniProt P07333); details: kinase FMS; 1 µmol/L single concentration; read-out: %-inhibition at 1 µmol/L, FMS
[6] = biological target: panel of 255 wild-type kinases (Homo sapiens, UniProt P29597); details: kinase TYK2; 1 µmol/L single concentration; read-out: %-inhibition at 1 µmol/L, TYK2
[7] = biological target: panel of 255 wild-type kinases (Homo sapiens, UniProt O75676); details: MSK2; 1 µmol/L single concentration; read-out: %-inhibition, MSK2
[8] = biological target: panel of 255 wild-type kinases (Homo sapiens, UniProt P19784); details: kinase CK2α2/β; 1 µmol/L single concentration; read-out: %-inhibition at 1 µmol/L, CK2α2/β
[9] = biological target: panel of 255 wild-type kinases (Homo sapiens, UniProt Q14289); details: kinase PYK2; 1 µmol/L single concentration; read-out: %-inhibition at 1 µmol/L, PYK2
[10] = biological target: panel of 255 wild-type kinases (Homo sapiens, UniProt P21802); details: kinase FGFR2; 1 µmol/L single concentration; read-out: %-inhibition at 1 µmol/L, FGFR2
[11] = biological target: T1, panel of 255 wild-type kinases (Homo sapiens, UniProt P52333); details: kinase JAK3; 1 µmol/L single concentration; read-out: %-inhibition at 1 µmol/L, JAK3
T1 sequence (P52333 1-1124): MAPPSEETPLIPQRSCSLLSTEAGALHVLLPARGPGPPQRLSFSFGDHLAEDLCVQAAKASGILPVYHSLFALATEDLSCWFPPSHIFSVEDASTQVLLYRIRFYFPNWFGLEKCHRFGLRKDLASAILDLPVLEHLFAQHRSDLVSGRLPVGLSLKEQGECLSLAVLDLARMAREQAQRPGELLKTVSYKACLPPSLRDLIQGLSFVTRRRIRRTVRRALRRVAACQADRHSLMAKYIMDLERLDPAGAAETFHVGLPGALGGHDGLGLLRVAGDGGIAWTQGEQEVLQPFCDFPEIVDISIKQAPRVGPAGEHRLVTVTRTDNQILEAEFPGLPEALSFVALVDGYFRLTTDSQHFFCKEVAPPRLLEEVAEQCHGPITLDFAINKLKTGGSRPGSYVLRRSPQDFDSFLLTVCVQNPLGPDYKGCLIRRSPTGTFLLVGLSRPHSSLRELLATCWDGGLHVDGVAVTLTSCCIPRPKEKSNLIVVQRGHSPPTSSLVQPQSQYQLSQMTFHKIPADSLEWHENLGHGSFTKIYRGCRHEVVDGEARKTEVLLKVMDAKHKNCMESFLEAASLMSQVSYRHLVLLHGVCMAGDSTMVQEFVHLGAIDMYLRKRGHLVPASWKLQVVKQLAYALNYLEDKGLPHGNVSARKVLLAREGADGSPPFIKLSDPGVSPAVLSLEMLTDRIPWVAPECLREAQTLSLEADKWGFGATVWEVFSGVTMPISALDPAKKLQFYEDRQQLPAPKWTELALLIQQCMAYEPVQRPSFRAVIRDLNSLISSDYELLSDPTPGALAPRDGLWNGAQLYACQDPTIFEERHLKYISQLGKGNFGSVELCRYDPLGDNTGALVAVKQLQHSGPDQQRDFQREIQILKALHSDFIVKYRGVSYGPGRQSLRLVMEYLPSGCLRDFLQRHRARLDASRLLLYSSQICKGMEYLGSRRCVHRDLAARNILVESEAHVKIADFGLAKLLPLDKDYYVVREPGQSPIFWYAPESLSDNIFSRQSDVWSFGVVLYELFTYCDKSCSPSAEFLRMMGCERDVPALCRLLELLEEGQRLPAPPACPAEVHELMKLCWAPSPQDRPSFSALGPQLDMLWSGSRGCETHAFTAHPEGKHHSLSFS

[12] = biological target: panel of 255 wild-type kinases (Homo sapiens, UniProt Q13164); details: kinase Erk5; 1 µmol/L single concentration; read-out: %-inhibition at 1 µmol/L, Erk5
[13] = biological target: panel of 255 wild-type kinases (Homo sapiens, UniProt P45983); details: kinase JNK1; 1 µmol/L single concentration; read-out: %-inhibition at 1 µmol/L, JNK1
[14] = biological target: panel of 255 wild-type kinases (Homo sapiens, UniProt P22455); details: kinase FGFR4; 1 µmol/L single concentration; read-out: %-inhibition at 1 µmol/L, FGFR4
[15] = biological target: panel of 255 wild-type kinases (Homo sapiens, UniProt Q9NQU5); details: PAK6; 1 µmol/L single concentration; read-out: %-inhibition, PAK6
[16] = biological target: panel of 255 wild-type kinases (Homo sapiens, UniProt Q9HBH9); details: MNK2; 1 µmol/L single concentration; read-out: %-inhibition, MNK2
[17] = biological target: panel of 255 wild-type kinases (Homo sapiens, UniProt Q9NYA1); details: kinase SPHK1; 1 µmol/L single concentration; read-out: %-inhibition at 1 µmol/L, SPHK1

Row | SMILES | inhibition at 1 µM [1] [%] | inhibition at 1 µM [2] [%] | inhibition at 1 µM [3] [%] | inhibition at 1 µM [4] [%] | inhibition at 1 µM [5] [%] | inhibition at 1 µM [6] [%] | inhibition at 1 µM [7] [%] | inhibition at 1 µM [8] [%] | inhibition at 1 µM [9] [%] | inhibition at 1 µM [10] [%] | inhibition at 1 µM [11] [%] | inhibition at 1 µM [12] [%] | inhibition at 1 µM [13] [%] | inhibition at 1 µM [14] [%] | inhibition at 1 µM [15] [%] | inhibition at 1 µM [16] [%] | inhibition at 1 µM [17] [%]
1 | O=C(Nc1cnn2ccc(N3CCC[C@@H]3c3cc(F)ccc3F)nc12)N1CC[C@H](O)C1 [larotrectinib] | -4.49 | -2.75 | 5.31 | -0.835 | -4.31 | -0.368 | -3.36 | -3 | 5.34 | -6.46 | 6 | 1.26 | -3.55 | 6 | 13 | -8.51 | -16
2 | Cc1cc(Nc2ncnc3ccc(NC4=NC(C)(C)CO4)cc23)ccc1Oc1ccn2ncnc2c1 [tucatinib] | -4 | -0.331 | 7 | 3.73 | 12 | 4.71 | 1.24 | -2.25 | 1.48 | 6 | 4.65 | -1.07 | -3.72 | 4 | 6.34 | 8 | -6.37
3 | FC(F)(F)c1ccc(CNc2ccc(Cc3c[nH]c4ncc(Cl)cc34)cn2)cn1 [pexidartinib] | -1.24 | 13 | 13 | 7 | 95 | 19 | 4.45 | 0.601 | 3 | 62 | 40 | 10 | -1.87 | 7.42 | 0.273 | 48 | -5
4 | Cn1cnc2c(F)c(Nc3ccc(Br)cc3F)c(C(=O)NOCCO)cc21 [binimetinib] | -3.5 | -1.86 | -1.7 | 1.39 | 7 | -4 | -3.65 | -1.89 | 2.41 | 4.56 | -0.365 | -0.05 | -2.59 | 4.66 | 4.75 | -13 | -26
5 | CN1CCN(c2ccc(C(=O)Nc3n[nH]c4ccc(Cc5cc(F)cc(F)c5)cc34)c(NC3CCOCC3)c2)CC1 [entrectinib] | -2.18 | 49 | 60 | 83 | 86 | 95 | 2.7 | 2 | 96 | 97 | 97 | 13 | -0.262 | 38 | 15 | 0.904 | -4
6 | COC(=O)N[C@@H](C)CNc1nccc(-c2cn(C(C)C)nc2-c2cc(Cl)cc(NS(C)(=O)=O)c2F)n1 [encorafenib] | 0.0799 | 1.12 | 3 | 1.69 | 8 | -6 | -4 | -3.75 | 4 | 4 | 2.28 | 9 | 6 | 4.23 | 13 | -3.42 | -5.65
7 | COc1ccc(CN2C3CC2CN(c2ccc(-c4cc(OCC(C)(C)O)cn5ncc(C#N)c45)cn2)C3)cn1 [selpercatinib] | -10 | -1.18 | 19 | 10 | 79 | 3.39 | 5.66 | 0.638 | 12 | 100 | 27 | 4 | -5.39 | 84 | 14 | 37 | -13
8 | Cn1cnc2c(F)c(Nc3ccc(Br)cc3Cl)c(C(=O)NOCCO)cc21 [selumetinib] | -2.62 | 0.227 | 5 | 1.6 | 8.51 | -3 | -0.42 | -2 | -0.622 | 1.1 | 6 | 2.36 | -4.74 | 6.37 | 12 | -0.47 | -8
9 | CCc1nc(C(N)=O)c(Nc2ccc(N3CCC(N4CCN(C)CC4)CC3)c(OC)c2)nc1NC1CCOCC1 [gilteritinib] | -3 | 68 | 96 | 61 | 104 | 70 | 6 | 23 | 93 | 61 | 91 | 38 | 29 | 15 | 22 | 89 | -6

Source: paper PMC9516332 (Frontiers in Oncology, 2022)
